From PubChem BioAssay (NCI)
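Briefly, cells in 96-well plates were exposed to five compound concentrations for 48 h, and endpoints were estimated by linear interpolation. At the GI50, growth is halved. TGI: concentration producing complete growth inhibition.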

Legend:
Experiment in all cases: growth of human tumour cells (NCI), 48 h
UACC-257 melanoma = tested on: UACC-257 melanoma
SNB-75 CNS = tested on: SNB-75 CNS
BT-549 breast = tested on: BT-549 breast
MDA-MB-231 breast = tested on: MDA-MB-231 breast
NCI-H23 lung = tested on: NCI-H23 lung
SN12C renal = tested on: SN12C renal
T-47D breast = tested on: T-47D breast
COLO 205 colon = tested on: COLO 205 colon
OVCAR-3 ovarian = tested on: OVCAR-3 ovarian
786-0 renal = tested on: 786-0 renal
SF-539 CNS = tested on: SF-539 CNS
RPMI-8226 leukemia = tested on: RPMI-8226 leukemia
MDA-MB-435 = tested on: MDA-MB-435
DU-145 prostate = tested on: DU-145 prostate
A498 renal = tested on: A498 renal
SK-OV-3 ovarian = tested on: SK-OV-3 ovarian
U251 CNS = tested on: U251 CNS
HCC-2998 colon = tested on: HCC-2998 colon
ACHN renal = tested on: ACHN renal
PC-3 prostate = tested on: PC-3 prostate
NCI-H522 lung = tested on: NCI-H522 lung
HL-60(TB) leukemia = tested on: HL-60(TB) leukemia
NCI-H460 lung = tested on: NCI-H460 lung
HOP-62 NSCLC = tested on: HOP-62 NSCLC
SW-620 colon = tested on: SW-620 colon
KM12 colon = tested on: KM12 colon
SK-MEL-2 melanoma = tested on: SK-MEL-2 melanoma
CCRF-CEM leukemia = tested on: CCRF-CEM leukemia
TK-10 renal = tested on: TK-10 renal
NCI-H226 lung = tested on: NCI-H226 lung
SK-MEL-5 melanoma = tested on: SK-MEL-5 melanoma
UACC-62 melanoma = tested on: UACC-62 melanoma
SNB-19 CNS = tested on: SNB-19 CNS
SF-268 CNS = tested on: SF-268 CNS
MOLT-4 leukemia = tested on: MOLT-4 leukemia
SK-MEL-28 melanoma = tested on: SK-MEL-28 melanoma
HCT-15 colon = tested on: HCT-15 colon
OVCAR-4 ovarian = tested on: OVCAR-4 ovarian
RXF 393 renal = tested on: RXF 393 renal
M14 melanoma = tested on: M14 melanoma
OVCAR-8 ovarian = tested on: OVCAR-8 ovarian
OVCAR-5 ovarian = tested on: OVCAR-5 ovarian
UO-31 renal = tested on: UO-31 renal
EKVX NSCLC = tested on: EKVX NSCLC
HOP-92 NSCLC = tested on: HOP-92 NSCLC
A549 NSCLC = tested on: A549 NSCLC
MALME-3M melanoma = tested on: MALME-3M melanoma
HS 578T breast = tested on: HS 578T breast
SR leukemia = tested on: SR leukemia
NCI/ADR-RES ovarian = tested on: NCI/ADR-RES ovarian
HT29 colon = tested on: HT29 colon
MCF7 breast = tested on: MCF7 breast
SF-295 CNS = tested on: SF-295 CNS
LOX IMVI melanoma = tested on: LOX IMVI melanoma
K-562 leukemia = tested on: K-562 leukemia
CAKI-1 renal = tested on: CAKI-1 renal

SMILES: CNC(=O)c1ccccc1Nc1nc(Nc2cc(OC)c(OC)c(OC)c2)ncc1Br
- GI50 (UACC-257 melanoma): 0.0328 µM
- TGI (UACC-257 melanoma): 3.47 µM
- GI50 (SNB-75 CNS): < 0.0124 µM
- TGI (SNB-75 CNS): 0.0494 µM
- GI50 (BT-549 breast): 0.0704 µM
- TGI (BT-549 breast): 1.17 µM
- GI50 (MDA-MB-231 breast): 0.033 µM
- TGI (MDA-MB-231 breast): 0.263 µM
- GI50 (NCI-H23 lung): 0.035 µM
- TGI (NCI-H23 lung): 1.12 µM
- GI50 (SN12C renal): 0.0366 µM
- TGI (SN12C renal): 3.3 µM
- GI50 (T-47D breast): 1.07 µM
- TGI (T-47D breast): 6.71 µM
- GI50 (COLO 205 colon): 0.0151 µM
- TGI (COLO 205 colon): 0.0591 µM
- GI50 (OVCAR-3 ovarian): 0.0695 µM
- TGI (OVCAR-3 ovarian): 25 µM
- GI50 (786-0 renal): 0.0234 µM
- TGI (786-0 renal): 1.85 µM
- GI50 (SF-539 CNS): 0.0313 µM
- TGI (SF-539 CNS): 0.263 µM
- GI50 (RPMI-8226 leukemia): 0.0701 µM
- TGI (RPMI-8226 leukemia): 2.84 µM
- GI50 (MDA-MB-435): 0.0546 µM
- TGI (MDA-MB-435): 2.11 µM
- GI50 (DU-145 prostate): 0.0348 µM
- TGI (DU-145 prostate): 42.1 µM
- GI50 (A498 renal): < 0.0109 µM
- TGI (A498 renal): 0.0368 µM
- GI50 (SK-OV-3 ovarian): 0.0309 µM
- TGI (SK-OV-3 ovarian): 5.13 µM
- GI50 (U251 CNS): 0.0426 µM
- TGI (U251 CNS): 3.38 µM
- GI50 (HCC-2998 colon): 0.027 µM
- TGI (HCC-2998 colon): 1.54 µM
- GI50 (ACHN renal): 0.0209 µM
- TGI (ACHN renal): 15.6 µM
- GI50 (PC-3 prostate): 0.131 µM
- TGI (PC-3 prostate): 10.9 µM
- GI50 (NCI-H522 lung): 0.0417 µM
- TGI (NCI-H522 lung): 1.85 µM
- GI50 (HL-60(TB) leukemia): 0.0245 µM
- TGI (HL-60(TB) leukemia): 0.181 µM
- GI50 (NCI-H460 lung): 0.0291 µM
- TGI (NCI-H460 lung): 1.37 µM
- GI50 (HOP-62 NSCLC): 0.0349 µM
- TGI (HOP-62 NSCLC): 2.31 µM
- GI50 (SW-620 colon): 0.0241 µM
- TGI (SW-620 colon): 5.76 µM
- GI50 (KM12 colon): < 0.0136 µM
- TGI (KM12 colon): 4.98 µM
- GI50 (SK-MEL-2 melanoma): 0.0171 µM
- TGI (SK-MEL-2 melanoma): 0.0499 µM
- GI50 (CCRF-CEM leukemia): 0.0523 µM
- TGI (CCRF-CEM leukemia): > 19.9 µM
- GI50 (TK-10 renal): 0.0186 µM
- TGI (TK-10 renal): 0.648 µM
- GI50 (NCI-H226 lung): 0.0265 µM
- TGI (NCI-H226 lung): 0.214 µM
- GI50 (SK-MEL-5 melanoma): 0.054 µM
- TGI (SK-MEL-5 melanoma): 1.18 µM
- GI50 (UACC-62 melanoma): 0.0255 µM
- TGI (UACC-62 melanoma): 1.64 µM
- GI50 (SNB-19 CNS): 0.12 µM
- TGI (SNB-19 CNS): 2.53 µM
- GI50 (SF-268 CNS): 0.0384 µM
- TGI (SF-268 CNS): 2.18 µM
- GI50 (MOLT-4 leukemia): 0.0501 µM
- TGI (MOLT-4 leukemia): 5.75 µM
- GI50 (SK-MEL-28 melanoma): 0.0667 µM
- TGI (SK-MEL-28 melanoma): 2.11 µM
- GI50 (HCT-15 colon): 0.0283 µM
- TGI (HCT-15 colon): 7.75 µM
- GI50 (OVCAR-4 ovarian): 0.0287 µM
- TGI (OVCAR-4 ovarian): 2.4 µM
- GI50 (RXF 393 renal): 0.0154 µM
- TGI (RXF 393 renal): 0.0712 µM
- GI50 (M14 melanoma): 0.0191 µM
- TGI (M14 melanoma): 1.38 µM
- GI50 (OVCAR-8 ovarian): 0.0483 µM
- TGI (OVCAR-8 ovarian): 12.2 µM
- GI50 (OVCAR-5 ovarian): 0.0321 µM
- TGI (OVCAR-5 ovarian): 31.7 µM
- GI50 (UO-31 renal): < 0.014 µM
- TGI (UO-31 renal): 0.0849 µM
- GI50 (EKVX NSCLC): 0.0308 µM
- TGI (EKVX NSCLC): 1.01 µM
- GI50 (HOP-92 NSCLC): < 0.0152 µM
- TGI (HOP-92 NSCLC): 0.0874 µM
- GI50 (A549 NSCLC): 0.0354 µM
- TGI (A549 NSCLC): 17.5 µM
- GI50 (MALME-3M melanoma): 0.0266 µM
- TGI (MALME-3M melanoma): 1.79 µM
- GI50 (HS 578T breast): 0.0259 µM
- TGI (HS 578T breast): 0.569 µM
- GI50 (SR leukemia): 0.0254 µM
- GI50 (NCI/ADR-RES ovarian): 0.0496 µM
- TGI (NCI/ADR-RES ovarian): 1.81 µM
- GI50 (HT29 colon): 0.0161 µM
- TGI (HT29 colon): 12.7 µM
- GI50 (MCF7 breast): 0.0374 µM
- TGI (MCF7 breast): 2.78 µM
- GI50 (SF-295 CNS): 0.0282 µM
- TGI (SF-295 CNS): 0.868 µM
- GI50 (LOX IMVI melanoma): 0.0183 µM
- TGI (LOX IMVI melanoma): 0.0917 µM
- GI50 (K-562 leukemia): 0.0874 µM
- TGI (K-562 leukemia): > 38.9 µM
- GI50 (CAKI-1 renal): 0.0155 µM
- TGI (CAKI-1 renal): 0.275 µM
